Measurements taken from US12577241B2, “Polycyclic pyridopyrazine derivative” (Shionogi & Co., Ltd., priority 2019, dated 2026).

How the values were obtained:
[1] = test system: HIV; assay: Test Example 1: Anti-HIV activity (MT-4 cells, CellTiter-Glo); assay type: cell-based; conditions: Human immunodeficiency virus 1, MT4, 96 h, 4 days culture, CellTiter-Glo luminescence, read-out: EC50 (50% HIV inhibitory concentration)
Protocol: Test Example 1: Anti-HIV Activity
Serial dilutions of a test sample were prepared in a 384-well microplate by a dispensing machine. 6.25×10^4 cells/mL of a MT-4 cell suspension was dispensed at 20 μL/well to the plate containing the test sample. Then, an HIV virus solution was dispensed at 20 μL/well. The plate was mixed with a plate mixer and cultured for 4 days in a CO2 incubator. On day 4 of culture, CellTiter-Glo or CellTiter-Glo 2.0 was dispensed at 20 μL/well. The plate was reacted while being stirred with the plate mixer at room temperature for about 15 minutes. The amount of luminescence of the plate after the reaction was measured with a microplate reader. A 50% HIV inhibitory concentration (EC50) was determined from a concentration-dependent curve using the following 4 parameter logistic curve fitting model. y=A+((B−A)/(1+((C/x)^D))) • A=minimum rate of inhibition (negative control, 0%) • B=maximum rate of inhibition (positive control, 100%) • C=compound concentration at an inflection point • D=slope coefficient • x=compound concentration • y=rate of inhibition (%) (Results)

[2] = target: T1, Nav 1.5 channel (Homo sapiens, UniProt Q14524); assay: Test Example 13: Nav test; assay type: cell-based; conditions: HEK cells expressing Nav 1.5 channel, INa, whole cell patch clamp, relative to vehicle
T1 construct: expressed in transfected cells; host or cells: HEK cells
Source text: Test Example 13: Nav Test
For the purpose of assessing proarrhythmic risk of the compound of the present invention, effects of the compound of the present invention on Na^+ current (INa), which plays an important role in the myocardial depolarization process, was studied using HEK cells expressing Voltage gated sodium channel (Nav 1.5 channel) encoded by SCNSA gene.
After a cell was retained at a membrane potential of −100 mV by the whole cell patch clamp method using an automated patch clamp system (QPatch; Sophion Bioscience A/S), INa induced by depolarization pulse stimulation at −10 mV for 20 milliseconds was recorded. An extracellular fluid (NaCl: 145 mmol/L, KCl 4 mmol/L, CaCl2: 2 mmol/L, MgCl2: 1 mmol/L, glucose: 10 mmol/L, HEPES (4-(2-hydroxyethyl)-1-piperazineethanesulfonic acid): 10 mmol/L, tetraethylammonium hydroxide (TEA): 10 mmol/L, pH=7.4) adjusted to 0.3% with dimethyl sulfoxide was used as a vehicle to apply the vehicle and the extracellular fluid containing the compound of the present invention dissolved at a concentration of interest to the cells under conditions of room temperature for 5 minutes or longer. From the obtained INa, the absolute value of the maximum peak current based on the current value at the membrane potential where the cells have been kept was measured using analytical software (QPatch Assay software; Sophion Bioscience A/S). The ratio of the maximum peak current at the time of applying the compound of the present invention to the maximum peak current at the time of applying the vehicle and the electric charge amount at the time of applying the compound of the present invention with respect to the electric charge amount at the time of applying vehicle were calculated, and the influence of the compound of the present invention on INa was evaluated.

[3] = target: T2, CYP3A4 (Homo sapiens, UniProt P08684); assay: Test Example 4: CYP3A4 (MDZ) MBI test; assay type: in vitro ADME; conditions: pooled human liver microsomes, midazolam 1-hydroxylation, IC 0 min preincubation/IC 30-min preincubation
T2 construct: pooled human liver microsomes, 0.5 mg/mL for the prereaction; from tissue; host or cells: pooled human liver microsomes
Protocol: Test Example 4: CYP3A4 (MDZ) MBI Test
This test as to the inhibition of CYP3A4 by the compound of the present invention is to evaluate mechanism based inhibition (MBI) ability from enhancement in inhibitory effect, caused by a metabolism reaction, of the compound of the present invention. CYP3A4 inhibition was evaluated using pooled human liver microsomes by 1-hydroxylation reaction of midazolam (MDZ) as a marker reaction. […]
The pooled human liver microsomes and a solution of the compound of the present invention were added according to the recipe of the prereaction described above into a K-Pi buffer solution (pH 7.4) as a prereaction solution in a 96-well plate. […] After centrifuged at 3000 rpm for 15 minutes, 1-hydroxymidazolam in the supernatant was quantified by LC/MS/MS.
Only a solvent DMSO used for dissolving the compound was added to the reaction solution instead of the compound of the present invention, and the mixture was used as a control (100%). Remaining activity (%) at the time of the addition of the compound of the present invention at each concentration was calculated, and IC was calculated by inverse estimation based on a logistic model using the concentrations and the rates of suppression. A shifted IC value is calculated from IC from the 0 min preincubation/IC from the 30-min preincubation. […]

[4] = test system: HIV mutant strains (E92Q/E138T/G140S/Q148H); assay: Test Example 2: Resistance evaluation test (HeLa-CD4 cells, wild and mutant strain); assay type: cell-based; conditions: 3 days
Protocol: Test Example 2: Resistance Evaluation Test
Serial dilutions of a test sample were prepared in a 96-well microplate (50 μL/well). 2.5×10^5 cells/mL of a HeLa-CD4 cell suspension was dispensed at 100 μL/well to the plate containing the test sample. Then, an HIV virus solution (wild strain and mutant strain) was dispensed at 50 μL/well. The plate was mixed with a plate mixer and cultured for 3 days in a CO2 incubator. The culture supernatant in each well was removed by suction. A cell lysis buffer was dispensed at 100 μL/well, and the plate was frozen in a freezer (−80° C.). The plate frozen in a freezer was thawed at room temperature, then mixed with a plate mixer, and centrifuged at 1,200 rpm for 5 minutes. Beta-Glo Reagent was dispensed at 20 μL/well to a 384-well microplate, 2 μL of the supernatant of each well (diluted as necessary) of the plate after centrifugation was added, and then the mixture was reacted at room temperature for about 30 minutes. The amount of luminescence of the plate after the reaction was measured with a microplate reader. A 50% HIV inhibitory concentration (EC50) was determined from a concentration-dependent curve using the following 4 parameter logistic curve fitting model. y=A+((B−A)/(1+((C/x)^D))) • A=minimum rate of inhibition (negative control, 0%) • B=maximum rate of inhibition (positive control, 100%) • C=compound concentration at an inflection point • D=slope coefficient • x=compound concentration • y=rate of inhibition (%)
The degree of resistance (fold change (FC)) of each mutant strain was calculated according to the following expression. • FC=EC50 of the mutant strain/EC50 of the wild strain (Results)

[5] = test system: HIV; assay: Test Example 14: Anti-HIV activity evaluation test in presence of human serum protein; assay type: cell-based; conditions: MT-4 cells; PS=4×(EC50 with 25% human serum protein/EC50 without); 100% extrapolated value
Protocol: Test Example 14: Anti-HIV Activity Evaluation Test in Presence of Human Serum Protein
Serial dilutions of a test sample were prepared in a 384-well microplate by a dispensing machine. A human serum protein solution (human serum protein concentration 50%) was dispensed at 20 μL/well to a 384-well microplate containing the test sample and left to stand still at room temperature for 1 hour. A culturing solution was dispensed at 20 μL/well to a plate for the absence of serum. 1 mL of 3.0×10^6 cells/mL of MT-4 cells and a 300 μL HIV virus solution were mixed and reacted at 37° C. for 1 hour. After the reaction, the cell suspension was centrifuged to discard the supernatant, the infected cells were dispersed in 40 mL of a culturing solution and the resultant solution was dispensed at 20 μL/well to a 384-well microplate containing the test sample and the human serum protein (human serum protein final concentration: 25%). The plate was mixed with a plate mixer and cultured for 4 days in a CO2 incubator. On day 4 of culture, CellTiter-Glo or CellTiter-Glo 2.0 was dispensed at 20 μL/well. The plate was reacted while being stirred with the plate mixer at room temperature for about 15 minutes. The amount of luminescence of the plate after the reaction was measured with a microplate reader. […]
The potency shift (PS) was calculated on the basis of the following calculation formula. […]

[6] = Test Example 7: Metabolism stability test; assay type: in vitro ADME; conditions: human liver microsomes 0.5 mg protein/mL, 30 minutes, 37° C., NADPH, compound concentration 0.5 μmol/L
Protocol: Test Example 7: Metabolism Stability Test Commercially available pooled human liver microsomes were reacted with the compound of the present invention for a given time. A residual rate was calculated by the comparison between the reacted sample and an unreacted sample to evaluate the degree at which the compound of the present invention was metabolized in the liver. The compound was reacted at 37° C. for 0 minutes or 30 minutes in the presence of 1 mmol/L NADPH in 0.2 mL of a buffer solution (50 mmol/L Tris-HCl pH 7.4, 150 mmol/L potassium chloride, and 10 mmol/L magnesium chloride) containing 0.5 mg protein/mL of the human liver microsomes (oxidative reaction). After the reaction, 50 μL of the reaction solution was added to 100 μL of a solution of methanol/acetonitrile=1/1 (v/v), and the mixture was mixed and centrifuged at 3000 rpm for 15 minutes. The compound of the present invention in the centrifugation supernatant was quantified by LC/MS/MS or solid-phase extraction (SPE)/MS. The amount of the compound of the present invention remaining after the reaction was calculated with the amount of the compound at 0 minutes of the reaction defined as 100%.

[7] = Test Example 6: Clearance evaluation test; assay type: in vivo, Rats; conditions: plasma, 1 umol/kg, rat, intravenous 1 μmol/kg; for half-life: read-out: Elimination half-life (t½) (converted); for clearance: read-out: Total body clearance (CLtot)
Source text: Test Example 6: Clearance Evaluation Test Experimental Material and Method (1) Animals used: Rats were used. (2) Breeding conditions: The rats were allowed to freely take solid food and sterilized tap water. (3) Dose and grouping setting: A predetermined dose was intravenously administered. Groups were set as follows: Intravenous administration: 1 μmol/kg (n=2) (4) Preparation of dosing solution: The test sample was solubilized using a solvent of dimethyl sulfoxide/propylene glycol=1/1 and administered. (5) Administration method: The test sample was administered to the tail vein through a syringe with an injection needle. (6) Evaluation item: Blood was collected over time, and the concentration of the compound of the present invention in plasma was measured using LC/MS/MS. (7) Statistical analysis: Total body clearance (CLtot) and elimination half-life (t½) were calculated as to change in the concentration of the compound of the present invention in plasma by the moment analysis method.

T1 sequence (Q14524 whole entry): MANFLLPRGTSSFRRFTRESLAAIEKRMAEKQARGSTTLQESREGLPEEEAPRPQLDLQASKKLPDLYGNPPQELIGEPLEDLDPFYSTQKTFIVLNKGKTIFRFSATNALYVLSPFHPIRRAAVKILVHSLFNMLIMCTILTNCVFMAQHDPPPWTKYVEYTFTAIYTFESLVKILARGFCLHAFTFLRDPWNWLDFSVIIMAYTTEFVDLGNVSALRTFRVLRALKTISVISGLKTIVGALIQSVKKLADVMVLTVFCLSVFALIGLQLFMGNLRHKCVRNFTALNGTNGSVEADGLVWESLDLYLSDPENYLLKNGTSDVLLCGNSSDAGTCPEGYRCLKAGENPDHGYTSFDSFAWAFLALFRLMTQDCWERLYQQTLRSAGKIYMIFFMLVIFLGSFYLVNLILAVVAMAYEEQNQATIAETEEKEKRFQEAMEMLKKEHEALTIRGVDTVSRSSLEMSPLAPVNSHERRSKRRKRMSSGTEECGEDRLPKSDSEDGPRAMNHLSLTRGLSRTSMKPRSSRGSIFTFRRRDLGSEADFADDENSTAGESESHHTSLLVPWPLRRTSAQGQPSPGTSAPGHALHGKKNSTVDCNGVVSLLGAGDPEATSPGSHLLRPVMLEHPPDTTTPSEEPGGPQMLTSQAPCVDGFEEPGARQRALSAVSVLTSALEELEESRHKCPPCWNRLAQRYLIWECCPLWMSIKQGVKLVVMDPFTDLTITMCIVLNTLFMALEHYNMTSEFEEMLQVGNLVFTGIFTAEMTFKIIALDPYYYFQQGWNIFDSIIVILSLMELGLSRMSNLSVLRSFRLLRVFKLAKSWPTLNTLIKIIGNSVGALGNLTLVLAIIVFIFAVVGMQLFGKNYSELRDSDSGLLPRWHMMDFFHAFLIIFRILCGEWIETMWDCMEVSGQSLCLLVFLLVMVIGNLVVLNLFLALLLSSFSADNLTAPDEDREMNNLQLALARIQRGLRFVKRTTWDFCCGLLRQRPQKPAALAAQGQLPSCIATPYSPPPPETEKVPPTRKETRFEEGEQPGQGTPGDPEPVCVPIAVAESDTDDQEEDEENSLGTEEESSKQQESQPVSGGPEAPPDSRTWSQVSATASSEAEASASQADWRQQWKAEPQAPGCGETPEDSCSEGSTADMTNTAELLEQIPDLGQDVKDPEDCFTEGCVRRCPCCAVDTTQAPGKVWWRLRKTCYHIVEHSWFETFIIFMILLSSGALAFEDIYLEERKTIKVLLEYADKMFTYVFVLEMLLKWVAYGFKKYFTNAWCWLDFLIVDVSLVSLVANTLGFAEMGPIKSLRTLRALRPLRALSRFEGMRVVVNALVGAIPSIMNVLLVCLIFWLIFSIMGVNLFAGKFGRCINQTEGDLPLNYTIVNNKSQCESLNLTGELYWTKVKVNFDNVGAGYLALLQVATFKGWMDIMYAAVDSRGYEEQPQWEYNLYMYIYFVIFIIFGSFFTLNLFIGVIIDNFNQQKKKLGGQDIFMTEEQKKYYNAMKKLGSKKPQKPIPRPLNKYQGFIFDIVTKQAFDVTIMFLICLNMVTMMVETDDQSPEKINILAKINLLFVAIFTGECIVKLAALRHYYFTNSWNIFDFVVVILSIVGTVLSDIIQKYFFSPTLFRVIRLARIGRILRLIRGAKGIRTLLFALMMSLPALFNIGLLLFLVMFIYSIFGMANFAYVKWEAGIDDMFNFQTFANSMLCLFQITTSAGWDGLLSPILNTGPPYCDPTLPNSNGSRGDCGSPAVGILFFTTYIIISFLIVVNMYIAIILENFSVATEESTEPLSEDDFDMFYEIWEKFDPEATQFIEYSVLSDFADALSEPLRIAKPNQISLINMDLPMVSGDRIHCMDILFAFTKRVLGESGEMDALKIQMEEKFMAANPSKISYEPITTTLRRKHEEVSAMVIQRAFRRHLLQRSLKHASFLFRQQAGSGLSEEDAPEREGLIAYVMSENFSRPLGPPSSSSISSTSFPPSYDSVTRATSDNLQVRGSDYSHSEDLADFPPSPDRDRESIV
T2 sequence (P08684 whole entry): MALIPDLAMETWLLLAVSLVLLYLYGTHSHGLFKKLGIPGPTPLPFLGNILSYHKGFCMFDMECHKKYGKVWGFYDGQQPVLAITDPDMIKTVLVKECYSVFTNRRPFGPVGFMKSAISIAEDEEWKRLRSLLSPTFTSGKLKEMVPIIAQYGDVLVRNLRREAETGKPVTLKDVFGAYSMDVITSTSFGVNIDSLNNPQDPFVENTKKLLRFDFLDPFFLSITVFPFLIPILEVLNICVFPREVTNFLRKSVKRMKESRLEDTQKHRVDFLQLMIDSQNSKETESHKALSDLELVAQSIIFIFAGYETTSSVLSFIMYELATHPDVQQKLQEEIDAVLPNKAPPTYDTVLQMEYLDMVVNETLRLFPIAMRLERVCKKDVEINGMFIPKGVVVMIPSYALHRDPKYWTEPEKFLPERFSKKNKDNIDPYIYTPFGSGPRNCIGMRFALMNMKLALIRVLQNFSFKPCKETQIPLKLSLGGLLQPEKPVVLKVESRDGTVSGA

Row | SMILES | EC50 [1] | electric charge amount increase rate [2] | maximum current amount increase rate [2] | Shifted IC grade (mechanism based inhibition) [3] | FC (fold change, degree of resistance) = EC50 of the mutant strain/EC50 of the wild strain [4] | Potency shift (PS) in the presence of human serum protein [5] | Remaining rate [6] | half-life [7] | clearance [7]
1 | CCN1C(=O)c2c(O)c(=O)c(-c3nnc(Cc4ccc(F)cc4F)s3)cn2[C@@H]2[C@H]1CCCC2(F)F [Compound I-022] | 5.3 nM | 137% | 93.1% | (−) (shifted IC of 1.0 or less is graded as negative (−)) | – | – | – | – | –
2 | CCN1C(=O)c2c(O)c(=O)c(-c3nnc(Cc4ccc(F)cc4F)s3)cn2[C@H]2CCC[C@H]21 [Compound I-020] | 5 nM | – | – | – | 7.7 | 29 | 74.6% | – | –
3 | CCN1C(=O)c2c(O)c(=O)c(-c3nnc(Cc4ccc(F)cc4F)s3)cn2[C@H]2CCCC[C@H]21 [Compound I-017] | 4.2 nM | 133% | 95.6% | – | 6.0 | – | – | 918 min | 4.27 mL/h/kg
4 | CCN1C(=O)c2c(O)c(=O)c(C(=O)NCc3cccc(Cl)c3F)cn2[C@@H]2[C@H]1CCCC2(F)F [Compound I-005] | 1 nM | – | – | – | 6.7 | 104 | – | 654 min | 7.02 mL/h/kg
5 | CCN1C(=O)c2c(O)c(=O)c(C(=O)NCc3nccc(Cl)c3F)cn2[C@H]2CCCC[C@H]21 [Compound I-003] | 3.9 nM | – | – | – | – | – | 91.7% | – | –
